Molecular target: T1, SIRT3 (Homo sapiens, UniProt Q9NTG7)
T1 sequence (Q9NTG7 102-399): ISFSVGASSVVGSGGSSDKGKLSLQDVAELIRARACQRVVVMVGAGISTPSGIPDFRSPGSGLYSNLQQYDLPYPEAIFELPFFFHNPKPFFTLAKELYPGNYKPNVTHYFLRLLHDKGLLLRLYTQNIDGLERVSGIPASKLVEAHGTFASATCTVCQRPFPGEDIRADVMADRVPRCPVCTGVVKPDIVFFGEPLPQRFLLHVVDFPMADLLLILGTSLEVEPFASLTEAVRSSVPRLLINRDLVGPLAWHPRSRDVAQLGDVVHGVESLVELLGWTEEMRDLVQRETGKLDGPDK
Assay: SPR (Biacore S200, immobilized SIRT3); also BLI (KD […]) and activation of the pure enzyme
Type: binding

Cn1c(=O)c2c(ncn2C)n(C)c1=O [Caffeine, 1,3,7-trimethylxanthine]
Kd: 686 nM

Reference: article PMC7493682, “Caffeine Targets SIRT3 to Enhance SOD2 Activity in Mitochondria” (Frontiers in Cell and Developmental Biology, 2020)
